# Biological target: T1, human DGAT2 (Homo sapiens, UniProt Q96PD7)
# T1 construct: FLAG (DYKDDDDK); made in house; host or cells: Sf-21 insect cells (BacPAK baculovirus system); membrane fraction used
# T1 sequence (Q96PD7 1-388): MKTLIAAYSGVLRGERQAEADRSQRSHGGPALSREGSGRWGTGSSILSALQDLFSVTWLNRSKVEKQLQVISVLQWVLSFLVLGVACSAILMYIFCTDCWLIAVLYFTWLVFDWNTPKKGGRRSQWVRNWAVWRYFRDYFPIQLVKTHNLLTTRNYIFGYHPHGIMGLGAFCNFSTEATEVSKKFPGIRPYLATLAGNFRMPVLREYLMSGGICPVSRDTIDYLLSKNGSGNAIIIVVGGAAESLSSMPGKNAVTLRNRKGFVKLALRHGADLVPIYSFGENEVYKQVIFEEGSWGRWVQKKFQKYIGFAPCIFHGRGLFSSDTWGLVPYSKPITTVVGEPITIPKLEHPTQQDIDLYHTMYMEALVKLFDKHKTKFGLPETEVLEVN
# Experiment: DGAT2 enzyme activity inhibition, Phospholipid FlashPlate SPA
# Format: biochemical
# Details: recombinant human DGAT2 membrane protein from Sf-21 cells; inhibition of [14C]-TG production; 37° C.
# Protocol: In order to prepare the pBacPAK9-DGAT2, which is DGAT2 expression vector, the human DGAT2 gene amplified by polymerase chain reaction (PCR) was cloned into the EcoR1 and Xho1 sites of the pBacPAK9 (clonctech) vector. The nucleotide sequence of the primers used in PCR was the forward primer 5′ […] (SEQ. ID. NO: 2). The composition of the reaction solution was to contain 50 ng of cDNA clone (OriGene), 200 μM of dATP, dCTP, dTTP, dGTP, 200 nM of each primer, 1 unit of Tag DNA Polymerase (Toyobo), 1×PCR buffer, and the final volume was adjusted to 20 μl. The reaction conditions were denatured at 95° C. for 5 minutes, followed by 30 times of 94° C. for 20 seconds, 60° C. for 20 seconds, and 72° C. for 90 seconds, followed by further reaction at 72° C. for 7 minutes.
# Recombinant human DGAT2 protein was expressed in Sf-21 cells, which are insect cells, by using the BacPack baculovirus expression system (Clontech). The brief manufacturing process is as follows. First, the pBacPAK9-DGAT2 expression vector was transfected with BacPAK6 virus DNA (Bsu36I digest) into sf21 cells using Bacfectin to prepare a recombinant DGAT2 expressing baculovirus. The thus prepared baculovirus was infected with Sf-21 cells at 10 MOI (multiplicity of infection), and after 72 hours, infected insect cells were collected and membrane proteins were isolated. For membrane protein separation, the cell pellet was dissolved in a sucrose solution containing 250 mM sucrose, 10 mM Tris (pH 7.4), and 1 mM ethylenediamine-tetraacetic acid (EDTA), and then homogenized by using a dounce homogenizer, and the supernatant was taken by centrifuging at 600×g for 15 minutes, and centrifuged at 100,000×g for 1 hour to discard the supernatant, and the remaining pellet was resuspended in 20 mM HEPES buffer (pH 7.4). The prepared DGAT2 overexpressing membrane protein was dispensed in 100 μl and stored at −80° C. until use. Protein concentration was quantified by using the BCA Protein Assay Kit (Thermo Scientific).
# In vitro DGAT2 analysis was performed using a Phospholipid Flash Plate (PerkinElmer) based on the principle of SPA (Scintilation Proximity Assay). First, DGAT2 inhibition compounds serially diluted 5 times from 3 nM to 10 μM (final concentration, 1% DMSO) were mixed in a buffer solution containing 2 μg DGAT2-membrane protein and 20 mM HEPES, 20 mM MgCl2, 1 mg/mL BSA, 50 μM 1,2 sn-oleoyl glycerol (Sigma), put in a 96-well flash plate (FlashPlate) and reacted at 37° C. for 20 minutes, and then 1 μM [14C] ole oil CoA (PerkinElmer, NEC651050UC) was added to be a final volume of 100 μL and further reacted at 37° C. for 15 minutes. After the enzymatic reaction was completed, 100 μL of isopropanol was added, the plate was sealed with a film, and the plate was shaken slowly in a plate shaker. The next day, the amplified scintillation signal (cpm) in Topcounter (Packard) was measured to measure the degree of production of [14C]-labeled triacyl glycerol (TG) as a reaction product. The measured value when the compound was not treated was used as a positive control, and the measured value of the compound treated group was calculated as a relative % to measure the inhibition effect of the compound on TG production.
row,SMILES,IC50 [nM]
1,"CCOc1ccccc1O[C@@H]1CCCN(c2cncc(Nc3nccc(N4CCC[C@H](OCC(=O)O)C4)n3)n2)C1 [Example 131, 2-(((S)-1-(2-((6-((R)-3-(2-ethoxyphenoxy)piperidin-1-yl)pyrazin-2-yl)amino)pyrimidin-4-yl)piperidin-3-yl)oxy)acetic Acid]",> 10000
2,"CCOc1ccccc1O[C@@H]1CCCN(c2cncc(Nc3nccc(-c4cccc(OC(C)(C)C(=O)O)c4)n3)n2)C1 [Example 176, (R)-2-(3-(2-((6-(3-(2-ethoxyphenoxy)piperidin-1-yl)pyrazin-2-yl)amino)pyrimidin-4-yl)phenoxy)-2-methylpropanoic Acid]",590
3,"CCOc1ccccc1O[C@@H]1CCCN(c2cncc(Nc3cccc(C(C)(C)C(=O)O)c3)n2)C1 [Example 29, (R)-2-(3-((6-(3-(2-ethoxyphenoxy)piperidin-1-yl)pyrazin-2-yl)amino)phenyl)-2-methylpropanoic Acid]",6400
4,"CCOc1ccccc1O[C@@H]1CCCN(c2cncc(Nc3nccc(-c4cccc(CC(C)(C)C(=O)O)c4)n3)n2)C1 [Example 146, (R)-3-(3-(2-((6-(3-(2-ethoxyphenoxy)piperidin-1-yl)pyrazin-2-yl)amino)pyrimidin-4-yl)phenyl)-2,2-dimethylpropanoic Acid]",390
5,"CCOc1ccccc1O[C@@H]1CCCN(c2cncc(Nc3cc(-c4ccc(C(C)(C)C(=O)O)cc4)ccn3)n2)C1 [Example 43, (R)-2-(4-(2-((6-(3-(2-ethoxyphenoxy)piperidin-1-yl)pyrazin-2-yl)amino)pyridin-4-yl)phenyl)-2-methylpropanoic Acid]",3100
6,"CCOc1cccnc1O[C@@H]1CCCN(c2cncc(Nc3ccnc(-c4cccc(CC(C)(C)C(=O)O)c4)n3)n2)C1 [Example 171, (R)-3-(3-(4-((6-(3-((3-ethoxypyridin-2-yl)oxy)piperidin-1-yl)pyrazin-2-yl)amino)pyrimidin-2-yl)phenyl)-2,2-dimethylpropanoic Acid]",240
7,"CCOc1cccnc1O[C@@H]1CCCN(c2cncc(Nc3ccnc(-c4cccc(OC(C)(C)C(=O)O)c4)n3)n2)C1 [Example 175, (R)-2-(3-(4-((6-(3-((3-ethoxypyridin-2-yl)oxy)piperidin-1-yl)pyrazin-2-yl)amino)pyrimidin-2-yl)phenoxy)-2-methylpropanoic Acid]",1100
8,"CCOc1ccccc1O[C@@H]1CCCN(c2cncc(Nc3cncc(-c4cccc(CC(C)(C)C(=O)O)c4)n3)n2)C1 [Example 112, (R)-3-(3-(6-((6-(3-(2-ethoxyphenoxy)piperidin-1-yl)pyrazin-2-yl)amino)pyrazin-2-yl)phenyl)-2,2-dimethylpropanoic Acid]",200
9,"CCOc1cccnc1O[C@@H]1CCCN(c2ccnc(Nc3cccc(-c4cccc(CC(C)(C)C(=O)O)c4)n3)n2)C1 [Example 68, (R)-3-(3-(6-((4-(3-((3-ethoxypyridin-2-yl)oxy)piperidin-1-yl)pyrimidin-2-yl)amino)pyridin-2-yl)phenyl)-2,2-dimethylpropanoic Acid]",3300
10,"CCOc1ccccc1O[C@@H]1CCCN(c2cncc(Nc3ccnc(-c4ccc(CC(C)(C)C(=O)O)cc4)n3)n2)C1 [Example 172, (R)-3-(4-(4-((6-(3-(2-ethoxyphenoxy)piperidin-1-yl)pyrazin-2-yl)amino)pyrimidin-2-yl)phenyl)-2,2-dimethylpropanoic Acid]",250
11,"CCOc1ccccc1O[C@@H]1CCCN(c2cncc(Nc3nc(C)c(C)s3)n2)C1 [Example 2, (R)—N-(6-(3-(2-ethoxyphenoxy)piperidin-1-yl)pyrazin-2-yl)-4,5-dimethylthiazol-2-amine]",6500
12,"CCOc1ccccc1O[C@@H]1CCCN(c2cncc(Nc3nccc(N4CCN(CC(=O)O)CC4)n3)n2)C1 [Example 127, (R)-2-(4-(2-((6-(3-(2-ethoxyphenoxy)piperidin-1-yl)pyrazin-2-yl)amino)pyrimidin-4-yl)piperazin-1-yl)acetic Acid]",2900

# More lines, in order of falling IC50, values ahead:
row,IC50 [nM],SMILES
1,7200,"CCOc1ccccc1O[C@@H]1CCCN(c2cncc(Nc3cccc(C(C)(C)C(=O)O)n3)n2)C1 [Example 50, (R)-2-(6-((6-(3-(2-ethoxyphenoxy)piperidin-1-yl)pyrazin-2-yl)amino)pyridin-2-yl)-2-methylpropanoic Acid]"
2,6700,"CCOc1ccccc1O[C@@H]1CCCN(c2cncc(Nc3ccc(CC(=O)NCc4ccncc4)cc3)n2)C1 [Example 26, (R)-2-(4-((6-(3-(2-ethoxyphenoxy)piperidin-1-yl)pyrazin-2-yl)amino)phenyl)-N-(pyridin-4-ylmethyl)acetamide]"
3,5000,"CCOc1ccccc1O[C@@H]1CCCN(c2nccc(Nc3nccc(-c4cccc(CC(C)(C)C(=O)O)c4)n3)n2)C1 [Example 149, (R)-3-(3-(2-((2-(3-(2-ethoxyphenoxy)piperidin-1-yl)pyrimidin-4-yl)amino)pyrimidin-4-yl)phenyl)-2,2-dimethylpropanoic Acid]"
4,3700,CCOc1ccccc1O[C@@H]1CCCN(c2cncc(Nc3cccc(N4CCC[C@H](OCC(=O)O)C4)n3)n2)C1 [Example 59]
5,2400,"CCOc1ccccc1O[C@@H]1CCCN(c2ccnc(Nc3cccc(-c4cccc(CC(C)(C)C(=O)O)c4)n3)n2)C1 [Example 67, (R)-3-(3-(6-((4-(3-(2-ethoxyphenoxy)piperidin-1-yl)pyrimidin-2-yl)amino)pyridin-2-yl)phenyl)-2,2-dimethylpropanoic Acid]"
6,1500,"CCOc1ccccc1O[C@@H]1CCCN(c2cccc(Nc3cccc(-c4cccc(CC(C)(C)C(=O)O)c4)n3)n2)C1 [Example 65, (R)-3-(3-(6-((6-(3-(2-ethoxyphenoxy)piperidin-1-yl)pyridin-2-yl)amino)pyridin-2-yl)phenyl)-2,2-dimethylpropanoic Acid]"
7,590,"CCOc1cccnc1O[C@@H]1CCCN(c2cncc(Nc3ccnc(-c4ccc(OC(C)(C)C(=O)O)cc4)n3)n2)C1 [Example 179, (R)-2-(4-(4-((6-(3-((3-ethoxypyridin-2-yl)oxy)piperidin-1-yl)pyrazin-2-yl)amino)pyrimidin-2-yl)phenoxy)-2-methylpropanoic Acid]"
8,310,"CCOc1ccccc1O[C@@H]1CCCN(c2cncc(Nc3cccc(-c4cccc(OC(C)(C)C(=O)O)c4)n3)n2)C1 [Example 80, (R)-2-(3-(6-((6-(3-(2-ethoxyphenoxy)piperidin-1-yl)pyrazin-2-yl)amino)pyridin-2-yl)phenoxy)-2-methylpropanoic Acid]"
9,270,"CCOc1ccccc1O[C@@H]1CCCN(c2cncc(Nc3nnnn3C)n2)C1 [Example 23, (R)-6-(3-(2-ethoxyphenoxy)piperidin-1-yl)-N-(1-methyl-1H-tetrazol-5-yl)pyrazin-2-amine]"
10,250,"CCOc1ccccc1O[C@@H]1CCCN(c2cncc(Nc3nc4ccccc4o3)n2)C1 [Example 10, (R)—N-(6-(3-(2-ethoxyphenoxy)piperidin-1-yl)pyrazin-2-yl)benzo[d]oxazol-2-amine]"
11,180,"CCOc1cccnc1O[C@@H]1CCCN(c2cncc(Nc3nccc(-c4ccc(CC(C)(C)C(=O)O)cc4)n3)n2)C1 [Example 154, (R)-3-(4-(2-((6-(3-((3-ethoxypyridin-2-yl)oxy)piperidin-1-yl)pyrazin-2-yl)amino)pyrimidin-4-yl)phenyl)-2,2-dimethylpropanoic Acid]"
